Common to all, as to type: functional
The nature of assay [1]: Cytotoxicity against human RPMI8226 cells assessed as cell growth at 10^-8 M after 48 hrs by SRB assay. The note with it: RPMI-8226, 48 h, read-out: Activity. In general terms: Sulforhodamine B stains cellular protein and so reports cell mass.
The next assay has as its system HT-29. Description: Cytotoxicity against human HT-29 cells assessed as cell growth at 10^-4 M after 48 hrs by SRB assay. The settings on record: HT-29, 48 h, read-out: Activity.
For the next assay, the system named is SK-MEL-5. Description: Cytotoxicity against human SK-MEL-5 cells assessed as cell growth at 10^-8 M after 48 hrs by SRB assay. The settings on record: SK-MEL-5, 48 h, read-out: Activity.
The test system of assay [2] is SR. Description: Cytotoxicity against human SR cells assessed as cell growth at 10^-4 M after 48 hrs by SRB assay. The settings on record: read-out: Activity.
The test system of assay [3] is SR. As to the kind of experiment: Cytotoxicity against human SR cells assessed as cell growth at 10^-6 M after 48 hrs by SRB assay. The settings on record: read-out: Activity.
Assay [4] deals with MCF7. As to the kind of experiment: Cytotoxicity against human MCF7 cells assessed as cell growth at 10^-5 M after 48 hrs by SRB assay. The settings on record: MCF7, 48 h, read-out: Activity.
For assay [5], the system named is MCF7. Description: Cytotoxicity against human MCF7 cells assessed as cell growth at 10^-7 M after 48 hrs by SRB assay. The note with it: MCF7, 48 h, read-out: Activity.
Assay [6] can be described thus: Cytotoxicity against human PC3 cells assessed as cell growth at 10^-4 M after 48 hrs by SRB assay. The settings on record: PC-3, 48 h, read-out: Activity.
The nature of assay [7]: Cytotoxicity against human RXF393 cells assessed as cell growth at 10^-7 M after 48 hrs by SRB assay. The note with it: RXF 393, 48 h, read-out: Activity.
A further assay deals with CCRF-CEM. Description: Cytotoxicity against human CCRF-CEM cells assessed as cell growth at 10^-6 M after 48 hrs by SRB assay. The note with it: read-out: Activity.
Assay [8] in a line: Cytotoxicity against human SNB75 cells assessed as cell growth at 10^-7 M after 48 hrs by SRB assay. The settings on record: SNB-75, 48 h, read-out: Activity.
Another assay relates to U-251. Description: Cytotoxicity against human U251 cells assessed as cell growth at 10^-4 M after 48 hrs by SRB assay. The settings on record: U-251, 48 h, read-out: Activity.
Assay [9] is described as follows: Cytotoxicity against human SW620 cells assessed as cell growth at 10^-7 M after 48 hrs by SRB assay. The settings on record: SW-620, 48 h, read-out: Activity.
Assay [10] in a line: Cytotoxicity against human RPMI8226 cells assessed as cell growth at 10^-5 M after 48 hrs by SRB assay. The note with it: RPMI-8226, 48 h, read-out: Activity.
A further assay concerns ACHN. As to the kind of experiment: Cytotoxicity against human ACHN cells assessed as cell growth at 10^-7 M after 48 hrs by SRB assay. The settings on record: read-out: Activity.
In another assay the test system is SN12C. As to the kind of experiment: Cytotoxicity against human SN12C cells assessed as cell growth at 10^-8 M after 48 hrs by SRB assay. The settings on record: read-out: Activity.
A short description of assay [11]: Cytotoxicity against human SNB75 cells assessed as cell growth at 10^-4 M after 48 hrs by SRB assay. The note with it: SNB-75, 48 h, read-out: Activity.
For the next assay, the system named is MDA-MB-435. As to the kind of experiment: Cytotoxicity against human MDA-MB-435 cells assessed as cell growth at 10^-7 M after 48 hrs by SRB assay. The settings on record: MDA-MB-435, 48 h, read-out: Activity.
The test system of a further assay is NCI-H460. As to the kind of experiment: Cytotoxicity against human NCI-H460 cells assessed as cell growth at 10^-8 M after 48 hrs by SRB assay. The settings on record: NCI-H460, 48 h, read-out: Activity.
The nature of assay [12]: Cytotoxicity against human SF295 cells assessed as cell growth at 0.5 uM after 48 hrs by SRB assay. The note with it: SF-295, 48 h, read-out: Activity.
A short description of assay [13]: Cytotoxicity against human UACC62 cells assessed as cell growth at 50 uM after 48 hrs by SRB assay. The settings on record: UACC-62, 48 h, read-out: Activity.
Assay [14] is described as follows: Cytotoxicity against human SF539 cells assessed as cell growth at 0.5 uM after 48 hrs by SRB assay. The settings on record: SF-539, 48 h, read-out: Activity.
Assay [15] is described as follows: Cytotoxicity against human UO31 cells assessed as cell growth at 5 nM after 48 hrs by SRB assay. The note with it: UO-31, 48 h, read-out: Activity.
The subject of assay [16] is EKVX. Description: Cytotoxicity against human EKVX cells assessed as cell growth at 0.5 uM after 48 hrs by SRB assay. The note with it: read-out: Activity.
The nature of assay [17]: Cytotoxicity against human DU145 cells assessed as cell growth at 5 nM after 48 hrs by SRB assay. The note with it: DU-145, 48 h, read-out: Activity.
For the next assay, the system named is NCI-H322M. As to the kind of experiment: Cytotoxicity against human NCI-H322M cells assessed as cell growth at 0.5 uM after 48 hrs by SRB assay. The note with it: read-out: Activity.
A short description of assay [18]: Cytotoxicity against human IGROV1 cells assessed as cell growth at 50 nM after 48 hrs by SRB assay. The settings on record: IGROV-1, 48 h, read-out: Activity.
A further assay has as its system NCI-H226. As to the kind of experiment: Cytotoxicity against human NCI-H226 cells assessed as cell growth at 50 nM after 48 hrs by SRB assay. The note with it: NCI-H226, 48 h, read-out: Activity.
The next assay concerns MDA-MB-231. Description: Cytotoxicity against human MDA-MB-231 cells assessed as cell growth at 5 uM after 48 hrs by SRB assay. The note with it: MDA-MB-231, 48 h, read-out: Activity.
The next assay relates to 786-0. Description: Cytotoxicity against human 786-0 cells assessed as cell growth at 50 uM after 48 hrs by SRB assay. The settings on record: 786-0, 48 h, read-out: Activity.
Assay [19] is described as follows: Cytotoxicity against human SKOV3 cells assessed as cell growth at 0.5 uM after 48 hrs by SRB assay. The note with it: SK-OV-3, 48 h, read-out: Activity.
Assay [20] in a line: Cytotoxicity against human OVCAR4 cells assessed as cell growth at 50 nM after 48 hrs by SRB assay. The settings on record: OVCAR-4, 48 h, read-out: Activity.
For assay [21], the system named is MCF7. As to the kind of experiment: Cytotoxicity against human MCF7 cells assessed as cell growth at 5 uM after 48 hrs by SRB assay. The settings on record: MCF7, 48 h, read-out: Activity.
A short description of assay [22]: Cytotoxicity against human COLO205 cells assessed as cell growth at 50 nM after 48 hrs by SRB assay. The settings on record: COLO 205, 48 h, read-out: Activity.
In the next assay the test system is NCI-H23. Description: Cytotoxicity against human NCI-H23 cells assessed as cell growth at 5 nM after 48 hrs by SRB assay. The settings on record: NCI-H23, 48 h, read-out: Activity.
Assay [23] can be described thus: Cytotoxicity against human HCT116 cells assessed as cell growth at 50 nM after 48 hrs by SRB assay. The settings on record: HCT-116, 48 h, read-out: Activity.
Assay [24] is described as follows: Cytotoxicity against human UACC62 cells assessed as cell growth at 5 nM after 48 hrs by SRB assay. The settings on record: UACC-62, 48 h, read-out: Activity.
Assay [25] in a line: Cytotoxicity against human Caki1 cells assessed as cell growth at 50 uM after 48 hrs by SRB assay. The settings on record: CAKI-1, 48 h, read-out: Activity.
Assay [26] deals with MCF7. Description: Cytotoxicity against human MCF7 cells assessed as cell growth at 5 nM after 48 hrs by SRB assay. The settings on record: MCF7, 48 h, read-out: Activity.
Assay [27] can be described thus: Cytotoxicity against human HL-60(TB) cells assessed as cell growth at 5 uM after 48 hrs by SRB assay. The note with it: HL-60, 48 h, read-out: Activity.
The subject of assay [28] is EKVX. Description: Cytotoxicity against human EKVX cells assessed as cell growth at 50 nM after 48 hrs by SRB assay. The settings on record: read-out: Activity.

The values that follow come from ChEMBL document CHEMBL3774317, “Design and synthesis of novel tamoxifen analogues that avoid CYP2D6 metabolism” (Eur J Med Chem, 2016).

SMILES strings stand for the structures.

Take `C/C(=C(/c1ccc(O)cc1)c1ccc(OCCN2CCCC2)cc1)c1ccccc1`: the growth at 0.01 µM in [1] stood at 103%; in the assay on SK-MEL-5, 101%; in the assay on SN12C it was 101%; in the assay on NCI-H460 it was 106%. For the same molecule, the growth at 100 µM is -91% with HT-29; -66% in the assay on SR [2]; -96% in [6]; -98% in the assay with U-251; -94% in [11]. Moreover, the results for the growth at 1 µM in the assay on SR [3] and with CCRF-CEM were 80% and 102%, respectively. The growth at 10 µM in the assay with MCF7 [4] was -47%; in assay [10], -19%. Further, the growth at 0.1 µM was determined as 44% in the assay on MCF7 [5]; 105% in assay [7]; 83% in [8]; 103% in [9]; 97% in the assay with ACHN; 97% in the assay on MDA-MB-435.

For `CCCCCCCCCC(=O)Oc1ccc(/C(=C(/C)c2ccccc2)c2ccc(OCCN3CCCC3)cc2)cc1`, the growth at 0.5 µM was determined as 79% in [12]; 72% in assay [14]; 78% with EKVX [16]; 73% with NCI-H322M; 83% in [19]. For the same molecule, the growth at 50 µM is -90% in [13], -84% in the assay on 786-0 and -89% in [25]. The growth at 0.005 µM came to 95% in [15]; 102% in assay [17]; 92% with NCI-H23; 100% in [24]; 45% in the assay with MCF7 [26]. For the same molecule, the growth at 0.05 µM in assay [18] came out at 95%; with NCI-H226, 94%; in assay [20] it was 92%; in [22], 96%; in [23] it was 95%; with EKVX [28], 90%. Also, the growth at 5 µM in the assay on MDA-MB-231 came out at 102%; in the assay on MCF7 [21], 36%; in [27] it was 94%.
